The values that follow come from patent publication US8551977B2, “Use of perifosine in combination with antimetabolites for the treatment of benign and malignant oncoses in humans and mammals” (AEterna Zentaris GmbH, priority 2002, dated 2013).

Assay [1] deals with DMBA-induced rat mammary carcinoma. The assay can be described thus: DMBA-induced rat mammary carcinoma model. The format is in vivo. The settings on record: initial tumor weight = 100%. The text has this: • In vivo Experiment: DMBA-induced rat mammary carcinoma model • Experimental Animal: Sprague-Dawley rat, female • Procedure: The mammary carcinoma was induced by a single oral dose of DMBA. The animals received perifosine from day 0 to day 14 and were observed up to day 42. The weight of the tumor mass was estimated by palpation and comparison with plastic models.
• In vivo Experiment: DMBA-induced rat mammary carcinoma model • Experimental Animal: Sprague-Dawley rat, female • Procedure: The mammary carcinoma was induced by a single oral dose of DMBA. The animals received perifosine from day 0 to day 14 and were observed up to day 42. The eight of the tumor was mass was estimated by palpation and comparison with plastic models.

The next assay deals with tumor cells. The conditions noted are these: Patel et al. 2002; cited from earlier work.
The mark [2] stands for this setting: Example 1, female Sprague-Dawley rat, Perifosin 14×6.81 mg/kg p.o., Cis-platinum 4×1 mg/kg i.p.
The mark [3] stands for this setting: Example 2, female Sprague-Dawley rat, Perifosine 14×6.81 mg/kg p.o., Cyclophosphamide 100 mg/kg i.v.
The mark [4] stands for this setting: Example 3, female Sprague-Dawley rat, Perifosine 14×6.81 mg/kg p.o., Adriamycin 4×2.15 mg/kg i.p.

Take `CCCCCCCCCCCCCCCCCCOP(=O)([O-])OC1CC[N+](C)(C)CC1` [Perifosin (D-21266), perifosine]: the “Day 21, Change in % (tumor weight)” value in assay [1] (setting [2]), in assay [1] (setting [3]) and in assay [1] (setting [4]) was −25% throughout. In the assay with tumor cells, the cell cycle block result is “blocks tumor cells in the G1-S and G2-M phase of the cell cycle”.

`N.N.[Cl][Pt][Cl]` [Cis-platinum, reference compound]: the “Day 21, Change in % (tumor weight)” value in assay [1] (setting [2]) was found to be 410%.

On to `O=P1(N(CCCl)CCCl)NCCCO1` (stereo not shown) [Cyclophosphamide, reference compound], for which, in assay [1] (setting [3]), the “Day 21, Change in % (tumor weight)” value is reported as 500%.

Regarding `COc1cccc2c1C(=O)c1c(O)c3c(c(O)c1C2=O)C[C@@](O)(C(=O)CO)C[C@@H]3O[C@H]1C[C@H](N)[C@H](O)[C@H](C)O1` [Adriamycin, reference compound], the “Day 21, Change in % (tumor weight)” value in assay [1] (setting [4]) worked out at 781%.
